Laboratory results published in US20220160669A1, “PARENTERAL NUTRITION FORMULATION” (BAXTER INTERNATIONAL INC., priority 2020, published 2022).
Entries after “also recorded” stand apart in the source; their conditions may differ.

Legend:
Type in all cases: in vivo, pig
[1] = test system: Neonatal Yorkshire/Landrace cross bred piglets; test: Duodenal mucosal resistance (Ussing chamber), PN-fed neonatal piglets; design: key to Duodenal Mucosal Resistance (Ussing chamber): +++ indicate P < 0.01; ++ indicates P < 0.05; + indicates positive trends; = denotes no significant P value; − denotes negative trends; key to Duodenal mucosal resistance, Grouping (Fisher's LSD test): Groups that do not share a letter are significantly different; ab: Groups that do not share a letter are significantly different; b: Groups that do not share a letter are significantly different; details: for Mean duodenal mucosal resistance: N 12; for Duodenal mucosal resistance, Grouping (Fisher's LSD test): PN group a, EN group b; for Duodenal Mucosal Resistance (Ussing chamber): compared to standard PN (s-PN)
Excerpt: It is known also that there is a relationship between intestinal epithelial integrity and intestinal health (Thomson et al., The Ussing chamber system for measuring intestinal permeability in health and disease, BMC Gastroenterology 2019; 19:98). Impairment of barrier function has been linked to intestinal diseases such as, for example, ulcerative colitis and Crohn's disease. The so-called Ussing system offers an ex vivo measurement of the permeability or duodenal mucosal resistance. The system allows to measure said duodenal mucosal (transepithelial) resistance (TER), which can be determined to give an overall measurement of gut integrity. A low TER value is indicative of increased permeability. Prior studies have shown that decreased TER under inflammatory conditions was associated with down regulation of “sealing” tight junctional proteins. Accordingly, determining epithelial integrity by means of the Ussing chamber constituted one option to assess the influence of various nutritional options (e.g. EN vs PN) and various PN compositions (see Example 3.5) on gut health and specifically on local inflammatory incidents.
(§1) Neonatal Yorkshire/Landrace cross bred piglets (n=72; six at a time from the same litter, repeating 12 times) were obtained from Oak Hill Genetics (Ewing, Ill.) after 48-hour sow reared for colostrum consumption and iron supplementation.
Duodenal mucosal resistance was determined according to known methods and according to Tappenden et al., Short-Chain Fatty Acid-Supplemented Total Parenteral Nutrition Enhances Functional Adaptation to Intestinal Resection in Rats. Gastroenterology 1997; 112:792-802. Pieces of intestine (1 cm^2) were cut out, and the tissue was mounted as flat sheets in incubation chambers containing oxygenated Krebs' bicarbonate buffer (pH 7.4) at 37° C. Tissue discs were preincubated in this buffer for 15 minutes to allow equilibration at this temperature. After preincubation, the chambers were transferred to other beakers containing [^3H]inulin and various 14C probe molecules in oxygenated Krebs' bicarbonate (pH 7.4 and 37° C.). The concentration of solutes was 4, 8, 16, 32, or 64 mmol/L for D-glucose and 16 mmol/L for L-glucose. The preincubation and incubation solutions were mixed at identical stirring rates with circular magnetic bars, and the stirring rates were adjusted by means of a strobe light. A stirring rate of 600 rpm was selected to achieve low effective resistance of the intestinal unstirred water. The experiment was terminated by removing the chambers and quickly rinsing the tissue in cold saline for approximately 5 seconds. The exposed mucosal tissue was then cut out of the chamber with a circular steel punch. For all probes, the tissue was dried overnight in an oven at 55° C. The dry weight of the tissue was determined, the sample was saponified with 0.75N NaOH, scintillation fluid was added (Beckman Ready Solv HP; Beckman, Mississauga, ON), and radioactivity was determined by means of […] an external standardization technique to correct for variable quenching of the two isotopes. The mucosal weight was determined after scraping of the intestine from adjacent samples not used for uptake studies. The weight of the mucosa in the samples used to measure uptake was determined by multiplying the dry weight of the intestinal sample by the percentage of the intestinal wall comprised of mucosa.

[2] = test system: Anti-inflammatory cytokines; test: Anti-inflammatory cytokines, summary (site not stated); design: key: + denotes a positive effect (compared to standard PN); ++ a very positive effect; − denotes no difference; details: compared to standard PN
Excerpt: as §1
(§2) The influence of the respective supplements on inflammation was investigated by determining Il-6, Il-1beta, TNF-alpha and Il-10 serum levels in the intervention groups compared to EN and PN according to Milo et al., Effects of Short-Chain Fatty Acid-Supplemented Total Parenteral Nutrition on Intestinal Pro-Inflammatory Cytokine Abundance. Digestive Diseases and Sciences 2002; 47:2049-2055. Jejunal and ileal samples were homogenized in double-distilled water, and the Bradford protein assay (Biorad, Hercules, Calif., USA) was performed on homogenate and plasma samples. Protein (30 μg) from each sample was denatured by boiling, and proteins were separated by size using 12.5% sodium dodecyl sulfate polyacrylamide gel electrophoresis. Separated proteins were transferred to polyvinylidene difluoride membranes (Biorad) using a semidry transfer apparatus (Biorad). Western blot analysis for TNF-alpha, IL-1beta, Il-10 and IL-6 was performed using porcine-specific polyclonal antibodies (Endogen, Woburn, Mass., USA). A mouse anti-pig monoclonal TNF-alpha antibody was used to detect TNF-alpha ([…]). Rabbit anti-pig polyclonal antibodies specific for IL-1beta and IL-6 were used to detect IL-1beta (17,500 kDa), Il-10 (18,600 kDa) and IL-6 (26,000 kDa). Membranes were developed using the Opti-4CN kit (Biorad) and photographed using the FOTO/Analyst Image Analysis System (Fotodyne, Inc., Hartland, Wis., USA). Densitometry of TNF-alpha, IL-1beta, IL-6, and Il-10 was performed using Collage Image Analysis Software 4.0 (Fotodyne, Inc.). Results are shown in FIG. 15 (Il-6), FIG. 16 (Illbeta), FIG. 17 (TNF-alpha) and FIG. 18 (Il-10).

Il-10 = test: Serum cytokine quantification, Il-10
Excerpt: as §1, §2

[3] = test system: Neonatal Yorkshire/Landrace cross bred piglets; test: Brain structure development by MRI; design: key: + denotes a positive effect (compared to standard PN); ++ a very positive effect; − denotes no difference; details: compared to standard PN
Excerpt: On study day 9, the piglets were submitted to Magnetic Resonance Imaging (MRI) using an Agilent 9.4 Tesla MRI system (Santa Clara, Calif.) to assess brain structural development and body composition. Heart rate and respiration were monitored during the entire MRI scan. For anatomic assessment of the brain targeting the hippocampus, images were obtained using a 3D T1-weighted magnetization prepared gradient-echo sequence: repetition time=1,900 ms; echo time=2.48 ms; inversion time=900 ms, flip angle=9°, matrix=256×256 (interpolated to 512×512), slice thickness=1.0 mm. For body composition assessment, a multi-slice, spin-echo technique was used to image the truncal area (longissimus fat/muscle): echo time=20 ms; recovery time=400 ms with four-signal averaging. […] Total scanning time was approximately 60 minutes to include both brain and body composition scanning. The MRI images were analyzed using OsiriX (Bernex, Switzerland). […] The average body weight and abdominal girth of the piglets in the Study Groups was also monitored.

| Compound | Mean duodenal mucosal resistance ([1]; 10 mmol/L TPN (Groups A, C, D)) | Duodenal mucosal resistance, Grouping (Fisher's LSD test) ([1]; 10 mmol/L TPN (Groups A, C, D)) | duodenal mucosal resistance, in words ([1]; 10 mmol/L TPN (Groups A, C, D), listed as D) | Anti-inflammatory cytokines ([2]; 10 mmol/L in PN) | serum levels of Il-10 (FIG. 18) (Il-10; 10 mmol/L TPN (Groups A, C, D)) | Brain ([3]; 10 mmol/L in PN) | duodenal mucosal resistance, in words ([1]; 10 mmol/L TPN (Groups A, C, D)) | Duodenal Mucosal Resistance (Ussing chamber) ([1]; 10 mmol/L) | duodenal mucosal resistance, in words ([1]; 30 mmol/L TPN (Group B)) | Mean duodenal mucosal resistance ([1]; 30 mmol/L TPN (Group B)) | Duodenal mucosal resistance, Grouping (Fisher's LSD test) ([1]; 30 mmol/L TPN (Group B)) | Duodenal Mucosal Resistance (Ussing chamber) ([1]; 30 mmol/L) | Anti-inflammatory cytokines ([2]; 30 mmol/L in PN) | serum levels of Il-10 (FIG. 18) (Il-10; 30 mmol/L TPN (Group B)) | Brain ([3]; 30 mmol/L in PN) | duodenal mucosal resistance, in words ([1]; 10 mmol/L TPN (Groups A, C, D), listed as C) |
| --- | --- | --- | --- | --- | --- | --- | --- | --- | --- | --- | --- | --- | --- | --- | --- | --- |
| CCCCCCCCCCCCCCCC(=O)OCC(COC(=O)CCC)OC(=O)CCCCCCCCCCCCCCC (stereo not shown) [1,2-Dipalmitoyl 3-butyryl glycerol] | 15.8264 | ab | significantly different from the PN; also recorded: almost as good as in Group E | + | almost or about as low | − |  |  |  |  |  |  |  |  |  |  |
| CCCC(=O)OCC(COC(=O)CCC)OC(=O)CCC [Tributyrin] | 21.8442 | ab |  | − | lower than in the standard PN Group P | − | significantly different from the PN | = | significantly different from the PN | 16.0234 | ab | = | + | lower than in the standard PN Group P | − |  |
| L-arginine, butanoate (3:4) [Arginine butyrate] | 8.2593 | b |  | ++ | lower than in the standard PN Group P | − | significantly lower loss of mucosal resistance compared to the other intervention groups | ++^2 (++ indicates P < 0.05) |  |  |  |  |  |  |  | significantly different from the PN |
